From patent publication US20240109855A1, “ANTI-QUORUM SENSING, ANTI-BIOFILM, AND INFLAMMATION ATTENUATING COMPOUNDS, COMPOSITIONS, AND METHODS OF USING SAME” (priority 2021, published 2024)
Entries after “also recorded” stand apart in the source; their conditions may differ.

Legend:
elastase = assay: Elastase secretion by P. aeruginosa; assay type: cell-based; conditions: data not shown
in vitro = conditions: human, LC50
Description: (§1) The human Hodgkin's Lymphoma derived L428 cell line was used as a model. The cells were grown in RPMI Medium 1640 with 10% FBS, 1% Glutamine and pen-strep (all from Biological Industries, Israel). […] Thirty thousand (30,000) cells/well were placed in 96-well plates with the coumaperine derivatives at different concentrations or with vehicle (DMSO) at a final volume of 200 μl. The plates were incubated for 48 hrs. at 37° C. and 5% CO2 followed by the addition of 50 μl of the XTT reagent tetrazolium-formazan, (Biological Industries, Israel) was added for 2 hrs. at 37° C., 5% CO2. In living cells, mitochondria […] the tetrazolium-formazan salt, thereby generating a color absorbing product at 450 nm. Absorbance was measured at 450 nm and 650 nm in an enzyme-linked immunosorbent assay (ELISA) plate reader (Multiskan Spectrum, Version 1.2), and recorded. Absorption values at 650 nm were subtracted from the blank and the 450 nm values. The results were normalized to the control (treated with DMSO).
(§2) Viability was determined in triplicate in two independent tests. The results were normalized to vehicle (DMSO) treated cells, (100% viability). Mean+SD.

L428 cells = assay: in vitro
Description: as §1, §2

P. aeruginosa = assay: Motility of P. aeruginosa; assay type: cell-based; conditions: data not shown
P. aeruginosa biofilm = P. aeruginosa biofilm formation under flow conditions (CLSM, IMARIS); assay type: cell-based
Description: FIGS. 15A-15B include fluorescent micrographs and a vertical bar graph showing that Pl-18 inhibits P. aeruginosa biofilm formation. The biofilm was grown under continuous flow conditions for 72 hr with 10 μM, 40 μM PL-18 or 0.04% DMSO. CLSM images visualize viable bacteria stained green and dead bacteria red using the BacLight® Dead/Live Kit. Scanned areas were 318 μm×318 μm. (15A) IMARIS images. Scale bar is 50 μm. (15B) A graph showing the mean±SD of the biofilm volume generated from three independent sets of flow-cell experiments. Two-way ANOVA Bonferroni's multiple comparisons test, 95% confidence interval (p-values ***≤0.0002).
The anti-biofilm activity of PL-18 was tested in flow conditions for 72 hours. The biofilm was visualized by CLSM and quantified using the IMARIS software.

[1] = test system: gram-positive and gram-negative bacteria; assay: Antibacterial activity, overall statement (diffusion discs test); assay type: cell-based; conditions: Table 6 summary; further: key: +: active; −: inactive
Description: All derivatives were dissolved in acetonitrile to a final concentration of 40 mM. Twenty (20) μl were loaded onto Whatman filter paper discs and dried. Bacillus subtilis, Staphylococcus aureus, and Acinetobacter baumannii were grown in LB (Lenox) O.N. One hundred (100) μl from the starter culture was plated on LB agar (Miller) dishes. Streptococcus sobrinus, and Streptococcus mutans grown in Brain Heary Infusion (BHI, Himedia) O.N. were similarly plated on BHI agar dishes. Discs were laid and incubated O.N. in 37° C. and the diameter of inhibition of bacterial growth was measured.
The antibacterial activities of derivatives showing QSI are outlined in Table 4. […] Similar to that idea, synthetic derivatives of furanon (product of marine algae) shown in-vivo QSI activity without antibacterial activity followed by immune response of the infected animal. Phenolic compounds decrease QS and virulence in PA01 and Chromobacterium violaceum. There is increasing number of studies, searching for compounds that targeting non-vital processes to combat bacteria.

[2] = test system: quorum sensing (CV026 and KYC55); assay: Quorum sensing inhibition, overall statement over the bio-reporter bacteria; assay type: cell-based
Description: TLC preparation: all derivatives were dissolved in 100% acetonitrile to a concentration of 40 mM. Then placed 20 μlon the same spot on the TLC and let the solvent evaporate before use. CV026: few colonies were transferred to liquid LB (Lenox) for overnight incubation at 30° C. in a 45 degree in orbital shaker. At the O.D. 0.8 3 ml of the starter was added to preheated soft LB agar containing 500 nM of 3-oxo-C6 (Sigma-Aldrich). The mixture was then loaded on the TLC in a glass plate for O.N. incubation in 30° C. The next day inhibition zone was measured, while QS is taking place bacteria produce purple pigment, and when QS is inhibited no pigment is produced. KYC55 (pJZ372) (pJZ384) (pJZ410): 20 μl from the frozen stock into 25 ml AT media (AT buffer×20: 1.57 M KH2PO4 pH=7.3. AT salts mix×20: 300 mM (NH4)2SO4, 13 mM MgSO4, 1.4 mM CaCl2, 0.4 mM FeSO4·7H2O, 0.26 mM MnSO4·H2O. AT media: 50 ml×20 AT-buffer, 50 ml×20 AT-salts, 10 ml 50% (w/v) glucose, add 890 ml to final volume of 1 liter.) For O.N. at 30° C. in an orbital shaker. Into preheated water agar with 25 ml AT-buffer, and 60 μg/ml X-gal and 5 nM 3-oxo-c8 (both from Sigma-Aldrich) 25 ml of the starter was added. Then, that mixture was loaded on the TLC in glass plate for O.N. incubation in 30° C. The next day the inhibition zone was measured. The bacteria produce blue pigment during QS and when QS is inhibited no pigment is produced. KYC55 (pJZ372) (pJZ384) (pJZ410) preservation in tetracycline (1 μg/ml), spectinomycin (100 μg/ml), gentamicin (100 μg/ml) (all antibiotics from Sigma Aldrich) in AT media O.N. then centrifuged and suspend in 15% glycerol frozen and maintained at −80° C.
All the synthesized compounds were evaluated for quorum sensing inhibition against two bioreporter bacteria strains, Chromobacterium violaceum (CV026) and Agrobacterium tumefaciens (KYC55) and the results are summarized in Table 1.

[3] = test system: Agrobacterium tumefaciens (KYC55); assay: Quorum sensing inhibition test with bio-reporter KYC55 (TLC overlay); assay type: cell-based; on Degree of quorum sensing inhibition (QSI), KYC55: key: −: no inhibition; +: low inhibition; ++: medium inhibition; +++: strong inhibition
Procedure, shortened: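 Compounds (40 mM in acetonitrile, 20 μl) were spotted on TLC and overlaid with soft agar reporter cultures, incubated overnight at 30 °C. CV026 was in LB with 500 nM 3-oxo-C6 (purple pigment), and KYC55 was in AT medium with 5 nM 3-oxo-C8 and 60 μg/ml X-gal (blue). Inhibition zone diameter was measured.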

In the case of COc1cc(/C=C/C(=O)N2CCC=CC2=O)cc(O)c1O [PL-18, Dihydroxy piperlongumine], the “Inhibition of elastase secretion” value (elastase) is reported as “not shown to inhibit; also recorded: not found to inhibit”, the CC50 at 48 h (in vitro) is reported as 9.3 µM and the Cytotoxic (L428 cells) is reported as “+”. The Inhibition of motility (P. aeruginosa) was “not shown to inhibit; also recorded: not found to inhibit”, the inhibition at 40 µM (P. aeruginosa biofilm; Pseudomonas aeruginosa, 72 h, read-out: Inhibition of P. aeruginosa biofilm formation) was 85% and the “Attenuation of biofilm formation, in words” value (P. aeruginosa biofilm; running text) was “effectively attenuate”. For the same compound, the Antibacterial [1] was “−”, the QSI ([2]; Table 6 summary) was “+” and the “QSI activity overall, in words” value ([2]; running text) was “moderate”. The “Degree of quorum sensing inhibition (QSI), KYC55” value ([3]; Table 2, piperlongumine derivatives) was “+++” and the “QSI activity against KYC55, in words” value ([3]; running text) was “strong quorum sensing inhibition”.
